Experimental data reported in patent US20070173545A1, “Activation of hypoxia-inducible gene expression” (priority 2003, published 2007).
“Also recorded” adds a separate entry of the source. Like-named read-outs stand apart in the source and are kept apart here.

Legend:
HIF-1a protein [1] = assay: HIF-1a levels in nuclear extracts of U87 glioma cells (western blot); type: cell-based, human; conditions: for Effect on induction of HIF-1a by glucose (Krebs buffer): 50 μM IAA, 1 mM 4-CIN, NAD or NADH 3 mM each, catalase 1000 and 2000 units/ml; for HIF-1a accumulation, glucose replaced with metabolite: glucose-free Krebs, 3 mM concentrations
Method: (A) U87 glioma cells cultured in DMEM were switched to Krebs buffer containing 5.5 mM glucose (Glc) and then evaluated for nuclear HIF-1a levels at various times by western blot analysis. (B) HIF-1a levels were measured after four hours incubation of cells in Krebs buffer containing the indicated glucose concentrations or with 5.5 mM 2-deoxyglucose (2-DG) substituted for glucose. (C) HIF-1a levels were measured in U87 cells cultured in glucose-free Krebs buffer following treatment for four hours under normoxia (21% oxygen) hypoxia (1% oxygen) or with 150 μm desferrioxamine (DFO). (D) Induction of HIF-1a by glucose was monitored in the presence of 50 μM IAA or 1 mM 4-CIN. […] Results are representative of experiments repeated at least three times.
Similar measurements were made in the presence of 50 μM IAA or in glucose-free Krebs buffer. […] HIF-1a induction by four hours treatment with 5.5 mM glucose-containing Krebs (Glc) is shown for comparison. (E) Digitonin-permeabilized cells were treated with 1% oxygen or Krebs containing either 5.5 mM glucose or 2 mM pyruvate in the presence of 50 μM IAA. Permeabilized cell in lanes 5 and 6 were treated with 3 mM NAD or NADH respectively in glucose free Krebs. Nuclear HIF-1a levels were determined four hours later. (F) HIF-1a levels were determined after four hour treatment of cells in glucose-free Krebs (lane 1) or 5.5 mM Glucose containing Krebs. […] (H) To measure the decay of the HIF-1a protein, HIF-1a measurements were made after four hour treatment under hypoxia (lane 1), four hours hypoxia followed by 30 minutes normoxia (lane 2), four hour treatment with 150 μM DFO (lane 3), four hours DFO followed by addition of 100 μM CHX for one hour (lane 4), four hours treatment with 2 mM pyruvate (lane 5), and four hours pyruvate followed by addition of 100 μM CHX for one hour (lane 6). (H) HIF-1a levels were determined in digitonin-permeabilized cells treated for four hour with Krebs containing no glucose (lane 1), 1 mM pyruvate (lane 2), or 1 mM pyruvate and 10 mM 2-OG (lane 3).
In order to resolve the biochemical mechanisms underlying this phenomenon, we studied the human glioma cell line U-87 under conditions of carefully defined culture media. Thus we studied these cells while culturing them in freshly prepared Krebs buffer, all components of which were known to us.
To precisely define the glucose metabolite mediating HIF-1a accumulation, we utilized pharmacological inhibitors of glycolysis as well as the direct addition of different glucose metabolites to cells (FIG. 4).

HRE containing promoter = assay: HRE-luciferase reporter in U251 cells; type: cell-based, human
From the text: FIG. 18: 2-oxoacids activate HIF-mediated gene expression in human cell lines Effective gene expression by HIF not only involves HIF protein stabilization via inhibition of HPH enzymes but also HIF-1 binding to DNA, inhibition of FIH-1 activity, and gene transcription (see FIG. 1). (A) Glioma cells used in our studies express FIH-1 as assessed using RT-PCR. […] Expression of beta-actin, a housekeeping gene not under HIF regulation is not affected by pyruvate. […] (E) U373 cell were transfected with a green fluorescent protein (GFP) construct under the control of an HIF regulatory element (HRE) containing promoter and then cultured for eight hours in glucose-free medium under the indicated conditions. […] U251 cells stably transfected with a luciferase construct under the control of an HRE containing promoter were cultured for six hours in glucose free Krebs with the following conditions: 1=control, 2=1% oxygen, 3=pyruvate (2 mM), 4=OAA (2 mM), 5=Ethylpyruvate (2 mM), 6=Glucose (5.5 mM), 7=DMOG (0.5 mM), 8=Lactacystin-beta lactone ([…]).
FIG. 19: HIF-mediated gene expression is selectively reversed by ascorbate U251 cells stably expressing HRE-luciferase were cultured in glucose-free Krebs buffer with the indicated conditions for eight hours. Pyruvate, oxaloacetate, and DMOG were added at 1 mM each.
Effective gene expression by HIF not only involves HIF protein stabilization via inhibition of HPH enzymes but also HIF-1 binding to DNA, inhibition of FIH-1 activity, and gene transcription. The human gliomas that we utilized for most of our studies all express mRNA for FIH-1 (FIG. 18A). […] To directly assess activation of gene containing an HRE regulated promoter by the glucose metabolites pyruvate and oxaloacetate, we used U373 glioma cells transfected with an HRE-green fluorescent (HRE-GFP) construct that responds to HIF activation.

HPH-1 [2] = molecular target: T1, HPH-1 (Homo sapiens, UniProt Q9H6Z9); conditions: 20 mM competitor, ^35S-HPH-1, total binding
T1 sequence (Q9H6Z9 whole entry): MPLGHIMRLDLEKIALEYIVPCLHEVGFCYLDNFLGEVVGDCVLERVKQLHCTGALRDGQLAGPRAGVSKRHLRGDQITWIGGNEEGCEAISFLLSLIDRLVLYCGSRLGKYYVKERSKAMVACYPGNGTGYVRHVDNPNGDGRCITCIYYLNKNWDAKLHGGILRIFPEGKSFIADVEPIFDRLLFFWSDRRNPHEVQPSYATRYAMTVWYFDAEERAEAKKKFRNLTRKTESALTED
Method: Following four further washes radiolabel associated with the pellets was measured via scintillation counting.
We also prepared ^35S-labeled HPH homologues from expression plasmids using the rabbit reticulocyte culture system (Bruick et al. (2001) Science 294, 1337-1340). The 2-OG column allowed us to investigate the binding of ^35S-HPH as well as potential competitors of binding.

HPH-1 [3] = molecular target: T1, HPH-1; assay: ^35S-pVHL capture assay, HPH-1; type: biochemical; design: made in house; host or cells: rabbit reticulocyte in vitro translation from expression plasmids; conditions: assay optimization shown for HPH-1, dose curves
Method: After incubating the peptide with the HPHs and the indicated reagents, ^35S-pVHL was added followed by addition of streptavidin-coated beads to pull down the HIF-1a peptide. The reaction was pelleted, the pellet was washed and then solubilized for SDS-PAGE analysis followed by autoradiography to reveal the captured ^35S-pVHL. Using in vitro translated HPH homologues we first optimized assay conditions with respect to the required HPH substrates and co-factors. […] Conditions: ascorbate=2 mM, 2-OG=2 mM, DTT=1 mM. […] In all assays 5 μl (about 20 ng) of enzyme and 1 μg of peptide was utilized.
Ascorbate concentrations were varied as indicated and OAA or Pyr were added where indicated at 1 mM.
After incubating 1 μg amount of the peptide with in vitro translated HPH and the indicated reagents, ^35S-pVHL was added followed by the addition of Streptavidin-coated beads to pull down the HIF-1a peptide. The reaction was pelleted, and the pellet was washed and solubilized for SDS-PAGE analysis followed by autoradiography to reveal the captured ^35S-pVHL. Using each of the in vitro translated HPH homologues we first optimized assay conditions with respect to the required HPH substrates and co-factors.

HIF-1a [4] = assay: HIF-1a induction in digitonin-permeabilized human glioma cells (U87, U251); type: cell-based; conditions: 1 mM ATP
HIF-1a [5] = assay: as above; type: cell-based; conditions: 1 mM doses
Method: We determined the ability of each shown structure to induce HIF by exposing digitonin-permeabilized human glioma cells (U87, U251) to 1 mM doses.
At four hours, ATP levels were measured in cell extracts using the luciferase method.
(§1) In order to investigate the mechanism of action of the 2-oxoacid HIF inducers that we identified we first determined their effects upon cellular ATP levels. […] As shown in the scheme in FIG. 1, cellular levels of HIF-1a can be elevated by blockade of proteasomal activity, ubiquitinylation, or prolyl hydroxylation. Inhibition of the proteasome by lactacystin beta-lactone (Lbl) leads to accumulation of HIF-1a in its polyubiquitinylated form which generally appears as a smear of higher molecular weight species on western blots. […] Cellular accumulation and nuclear translocation of HIF-1a can also be studied via immunohistochemistry. For this purpose we utilized U251 cells which are more adherent to cell culture dishes that the U87 cells.

HIF-1a protein [6] = assay: Nuclear HIF-1a accumulation in glioma cells by immunohistochemistry; type: cell-based, human; conditions: 2 mM, four hours, glucose-free Krebs buffer, Lbl 20 μM
From the text: Cells were then washed, fixed and stained for HIF-1a protein.
as §1

Compound: O=CC[C@@H](O)[C@H](O)[C@H](O)CO [2-deoxyglucose]
- HIF-1a levels (HIF-1a protein [1]; Krebs buffer with glucose or 5.5 mM 2-deoxyglucose, four hours, normoxia): could not be mimicked

Compound: O=C(O)CCC(=O)C(=O)O [2-oxoglutarate]
- Reversal of HRE-luciferase activation by pyruvate or oxaloacetate (HRE containing promoter; eight hours, oxaloacetate 1 mM, 2-oxoglutarate 10 mM): No reversal was seen
- Displacement of HPH binding to the 2-oxoglutarate column (HPH-1 [2]): Nearly half of the total binding of HPH to the 2-oxoglutarate column could be displaced
- Displacement of HPH binding to the 2-oxoglutarate column (HPH-1 [2]; listed as 2-OG): could displace this binding
- Requirement of substrates and co-factors for HPH activity (HPH-1 [3]): absolutely required for activity

Compound: Nc1ncnc2c1ncn2[C@@H]1O[C@H](COP(=O)(O)OP(=O)(O)OP(=O)(O)O)[C@@H](O)[C@H]1O [ATP]
- HIF-1a levels after direct addition of ATP (HIF-1a [4]): did not raise basal HIF-1a levels; also recorded: had no effect on HIF-1a levels

Compound: O=C(O)C=Cc1ccc(O)cc1 [Cinnamate, 4-hydroxycinnamate]
- Effect on induction of HIF-1a by glucose (Krebs buffer) (HIF-1a protein [1]): did not prevent the effect of Krebs buffer on HIF-1a accumulation

Compound: NC(=O)CI [Iodoacetamide]
- Effect on induction of HIF-1a by glucose (Krebs buffer) (HIF-1a protein [1]): completely blocked the ability of Krebs buffer to stimulate HIF-1a accumulation

Compound: O=S(=O)([O-])[O-].[Fe+2] [Iron, iron sulfate]
- Requirement of substrates and co-factors for HPH activity (HPH-1 [3]): absolutely required up to a maximal of about 100 μM

Compound: NC(=O)C1=CN([C@@H]2O[C@H](COP(=O)(O)OP(=O)(O)OC[C@H]3O[C@@H](n4cnc5c(N)ncnc54)[C@H](O)[C@@H]3O)[C@@H](O)[C@H]2O)C=CC1 [NADH]
- Effect on induction of HIF-1a by glucose (Krebs buffer) (HIF-1a protein [1]): neither NAD or NADH (3 mM each) had any effect on this induction

Compound: NC(=O)c1ccc[n+]([C@@H]2O[C@H](COP(=O)([O-])OP(=O)(O)OC[C@H]3O[C@@H](n4cnc5c(N)ncnc54)[C@H](O)[C@@H]3O)[C@@H](O)[C@H]2O)c1 [NAD]
- Effect on induction of HIF-1a by glucose (Krebs buffer) (HIF-1a protein [1]): neither NAD or NADH (3 mM each) had any effect on this induction

Compound: C[C@H](N)C(=O)O [alanine]
- HIF-1a accumulation, glucose replaced with metabolite (HIF-1a protein [1]; four hours): without effect

Compound: CC[C@H](C)C(=O)C(=O)O [alpha-keto-beta-methylvalerate]
- Ability to induce HIF (HIF-1a accumulation), structure-activity (HIF-1a [5]): capable of stimulating HIF-1a accumulation

Compound: O=C(O)CCCC(=O)C(=O)O [alpha-ketoadipate]
- Ability to induce HIF (HIF-1a accumulation), structure-activity (HIF-1a [5]): ineffectiveness

Compound: CCC(=O)C(=O)O [alpha-ketobutyrate]
- Ability to induce HIF (HIF-1a accumulation), structure-activity (HIF-1a [5]): ineffectiveness

Compound: CC(C)CC(=O)C(=O)O [alpha-ketoisocaproate]
- Ability to induce HIF (HIF-1a accumulation), structure-activity (HIF-1a [5]): capable of stimulating HIF-1a accumulation

Compound: CC(C)C(=O)C(=O)O [alpha-ketoisovalerate]
- Ability to induce HIF (HIF-1a accumulation), structure-activity (HIF-1a [5]): capable of stimulating HIF-1a accumulation

Compound: O=C(O)CC(O)(CC(=O)O)C(=O)O [citrate]
- HIF-1a accumulation, glucose replaced with metabolite (HIF-1a protein [1]; four hours): without effect

Compound: CCOC(=O)C(C)=O [ethylpyruvate, Ethylpyruvate]
- HIF-1a accumulation, glucose replaced with metabolite (HIF-1a protein [1]; four hours): as pronounced as those of the known 2-oxoglutarate antagonist dimethyloxalylglycine (DMOG)
- Ability to induce HIF (HIF-1a accumulation), structure-activity (HIF-1a [5]): identified as HIF-1 activators
- HRE-luciferase expression (HRE containing promoter; six hours, glucose free Krebs, pyruvate, OAA, Ethylpyruvate 2 mM, Lactacystin-beta lactone 20 mM): prominent activation of luciferase gene expression

Compound: O=C(O)CC(O)C(=O)O (stereo not shown) [malate]
- Ability to induce HIF (HIF-1a accumulation), structure-activity (HIF-1a [5]): ineffective

Compound: Catalase
- Effect on induction of HIF-1a by glucose (Krebs buffer) (HIF-1a protein [1]): had no effect

Compound: lactate
- HIF-1a accumulation, glucose replaced with metabolite (HIF-1a protein [1]; four hours): activate HIF-1a directly

Compound: succinate
- HIF-1a accumulation, glucose replaced with metabolite (HIF-1a protein [1]; four hours): without effect
- Nuclear HIF-1a accumulation (immunostaining) (HIF-1a protein [6]): ineffectiveness
- Nuclear HIF-1a accumulation (immunostaining) (HIF-1a protein [6]; listed as Succinate): does not affect HIF-1a accumulation
- Displacement of HPH binding to the 2-oxoglutarate column (HPH-1 [2]): could not; also recorded: but not by 20 mM succinate
